The values that follow come from US20010049389A1, “Arthropod-controlling composition” (priority 2000, published 2001).

Assay type in all cases: in vivo
Data set [1] deals with female adult common mosquitoes (Culex pipiens pallens). In words: Test Example 6: mosquito-coil in 0.34 m^3 chamber, knock-down of common mosquitoes. The following applies: 1% mosquito-coil (Preparation example 18) burnt in 0.34 m^3 chamber, after 15 minutes. Here is the method: On the bottom center of a cubic chamber having 70 cm of side (0.34 m^3), the mosquito-coil obtained in Preparation example 18 was set in a mosquito-coil holder. The mosquito-coil was ignited and the air in the chamber was stirred with a battery-type small electric fun. After that, the mosquito-coil and the electric fun were taken out and twenty female adult common mosquitoes (Culex pipiens pallens) were released into the chamber. After 15 minutes, the knock-down percentage was observed. Reference compound was also tested.

Data set [2] concerns first-instar larvae of summer fruit tortrix (Adoxophyes orana fasciata). In words: Test Example 19: treated artificial food, summer fruit tortrix larvae. The following applies: 1 ml of 500 ppm dilution (Preparation example 2) in 6 g artificial food, after 6 days. The procedure:
The formulation obtained in Preparation example 2 was diluted with water to make the concentration of the Pyrone Compound to 500 ppm. One milliter (1 ml) of the dilution was added to 6 g of artificial food (Insecta LF produced by Nihon Nosankogyo Co.) in plastic cup having 5.5 cm in diameter. Thirty first-instar larvae of summer fruit tortrix (Adoxophyes orana fasciata) were put into the plastic cup. After 6 days, the mortality was 90% or more.

Data set [3] deals with adult German cockroaches (Blattella germanica). In words: Test Example 4: smoking formulation in 28 m^3 chamber, German cockroaches. The following applies: 10 g smoking (Preparation example 25) in 28 m^3 chamber. The source says:
(§1) In a test chamber of 3 m×4 m and 2.3 m in height (28 m^3), two plastic cups were put at two corners, wherein each cup has ten (5 males and 5 females) adult German cockroaches (Blattella germanica) therein. Ten grams (10 g) of the smoking obtained in Preparation example 25 and 50g of magnesium oxide were charged into each of the cells in an aluminum container having an aluminum wall. The cell charged magnesium oxide has small holes. The aluminum container was dipped into water in the plastic container set in the test chamber. The smoking was heated to release the vaporized active ingredient by the reaction heats of magnesium oxide with water. After 2 hours, knock-down percentage was observed. Further, the cockroaches were transferred to a clean plastic cup and given foods and water. The mortality was observed after 7 days.

Data set [4] has as its system adult copra mites (Tyrophagus putrescentiae). In words: Test Example 11: treated drawing paper, copra mites. To be noted: drawing paper 800 mg/m^2, 25° C., 75% humidity, 24 hours. Here is the method: On a black drawing paper having 38 mm in diameter, 0.2 ml of an acetone solution of the Pyrone Compound was added dropwise and air-dried. The treated dosage was 800 mg/m^2. The drawing paper was set on an aluminum plate having 38 mm in diameter and adhesives were put on the edge to prevent for tested mites to escape. About 30 adult copra mites (Tyrophagus putrescentiae) were released on the drawing paper and kept at 25° C. and 75% of humidity for 24 hours. After that, the mortality was observed. The result was 93%.

Data set [5] deals with adult German cockroaches (Blattella germanica). In words: Test Example 21: total-release aerosol in 28 m^3 chamber, German cockroaches. To be noted: total-release aerosol (Preparation example 16) in 28 m^3 chamber, after 2 hours. The procedure: In a test chamber of 3 m×4 m and 2.3 m in height (28 m^3), two plastic cups were put at two corners, wherein each cup has ten (5 males and 5 females) adult German cockroaches (Blattella germanica) therein. The formulation obtained in Preparation example 16 was set in the center of the bottom and the contents of the aerosol were totally released. After 2 hours, the knock-down percentage was 100%.

Data set [6] has as its system adult smokybrown cockroaches (Periplaneta fuliginosa). In words: Test Example 4: smoking formulation in 28 m^3 chamber, smokybrown cockroaches. To be noted: 10 g smoking (Preparation example 25) in 28 m^3 chamber.
Description: as §1
(§2) Furthermore, the same tests were performed except that six (3 males and 3 females) adult smokybrown cockroaches (Periplaneta fuliginosa) and six (3 males and 3 females) adult American cockroaches (Periplaneta americana) were used in place of ten German cockroaches.

The test system of data set [7] is adult American cockroaches (Periplaneta americana). In words: Test Example 5: heating fumigant (ceramic plate) in 5.8 m^3 chamber, American cockroaches. To be noted: heating fumigant (Preparation example 24, 500 mg) at about 200° C. in 5.8 m^3 chamber. The procedure: On the bottom of a cubic chamber having 1.8 m of side (5.8 m^3), the heating fumigant (ceramic plate) obtained in Preparation example 24 with an electric heater was set in the center. Two plastic cups were put at two corners in the chamber, wherein each cup has ten (5 males and 5 females) adult German cockroaches (Blattella germanica) therein. Two hours after turning on an electric current, the ceramic plate was heated to about 200° C. (200±5° C.) and the active ingredient was vaporized. The heating temperature was estimated by measuring a surface temperature of the ceramic plate with radiation pyrometer (TR-0506C produced by Minolta Company) in advance. Then, the knocked-down cockroaches were counted and the knock-down percentage was calculated. Further, the cockroaches were transferred to a clean plastic cup and given foods and water. The mortality was observed after 7 days.
as §2

Data set [8] deals with adult pill bugs (Armadillidium vulgare). In words: Test Example 12: oil-based aerosol spray, pill bugs. The following applies: about 450 mg of 1.0% oil-based aerosol sprayed, after 3 days. The procedure: According to Preparation examples 10-14, 1.0% oil-based aerosol of the Pyrone Compound was obtained. A container (8.75 cm in diameter, 7.5 cm in height, bottom covered 16-mesh iron net and inside wall painted butter for preventing tested pill bugs to escape) having 5 adult pill bugs (Armadillidium vulgare) therein was set on the bottom center of a glass cylinder having 20 cm in diameter and 60 cm in height. About 450 mg of the above oil-based aerosol were sprayed to the pill bugs from the upper part of the cylinder. After 30 seconds, the pill bugs were taken out and put into a clean plastic cup having soil and dead leaves therein. The pill bugs were given food and water and observed after 3 days. The tests were repeated twice. The mortality was 100%. Reference compound was also tested and the mortality was 40%.

The test system of data set [9] is adult German cockroaches (Blattella germanica). In words: Test Example 3: direct spray of oil solution, knock-down of German cockroaches. To be noted: 1.5 ml of 0.5% oil solution sprayed directly, one minute after spraying. The procedure: A square of paper (side: 20 cm) was covered on the iron net set on the bottom of the metallic chamber (46 cm×46 cm, 70 cm in height). A container (8.75 cm in diameter, 7.5 cm in height, having 16-mesh net at the bottom and spreading butter on the wall for preventing escape) was set on the paper. In the container, ten (5 males and 5 females) adult German cockroaches (Blattella germanica) were released. By means of spray gun, 1.5 ml of the oil solution obtained in Preparation example 9 was applied to the test insects at a pressure of 0.42 kg/cm^2 from the upper part of the chamber. The container was taken out of the chamber 30 seconds after spraying and the test insects were transferred to a clean plastic cup. One minute after spraying, the knocked-down cockroaches were counted. As a result, the knock-down percentage was 100%. Reference compound was also tested and the knock-down percentage was 42%.

Broadly, the mortality is the share of the test organisms that died. Lower therefore signals a weak lethal effect.

On to `Cc1cc(O)c(C(=O)CC(C)C)c(=O)o1` [The Pyrone Compound], for which the “Knock-down percentage (%)” value in data set [1] came out at 98%; in data set [3] (after 2 hours) it was 100%; in data set [6] (after 2 hours), 100%; in data set [7] (two hours) it was 100%. In addition, the results for the mortality in [2], in [4] and in data set [8] were no less than 90%, 93% and 100%, respectively. Also, the “Mortality (%)” value in data set [3] (after 7 days) is on record as 100%; in data set [6] (after 7 days) it was 100%; in [7] (after 7 days), 67%. The knock-down percentage in data set [5] and in data set [9] was 100% throughout.
